Laboratory results taken from patent US11384066B1, “Heterocyclic compounds useful as aurora a selective inhibitors” (Jacobio Pharmaceuticals Co., Ltd., priority 2020, dated 2022).

Tests used:
Aurora B = Aurora B (Homo sapiens (Human), UniProt Q96GD4); experiment: Aurora B kinase assay (mobility shift assay); assay type: biochemical; conditions: ratio of Aurora B IC50 to Aurora A IC50
Method: (§1) Example A: Evaluation of Aurora a and Aurora B Inhibitory Effect—Kinase Assay
(§2) The inhibitory activities of a test compound against Aurora A and Aurora B were measured according to the following method.
(§3) The IC50 value of Aurora A and Aurora B kinase was performed by Sundia MediTech Co. Ltd. using Mobility shift assay.
(§4) • (1) Prepare a 1× kinase buffer [50 mM 4-(2-hydroxyethyl)-1-piperazineethanesulfonic acid (HEPES), PH 7.5, 0.01% Brij-35, 10 mM MgCl2, 2 mM dithiothreitol (DTT)]. • (2) Prepare compound:
(§5) The testing compound was dissolved with DMSO. The testing compound was diluted up to 100× final concentration in a 384-well plate. Transfer 250 nL of the compound dilution to a 384-well assay plate using Echo 550. 100% DMSO of 250 nL was added to the negative control well and the positive control well. • (3) Prepare a 2.5× enzyme solution using the above 1× kinase buffer. • (4) Add 10 μL of the 2.5× enzyme solution to the compound well and the positive control well of the 384-well assay plate. Add 10 μL of the 1× kinase buffer to the negative control well. • (5) The 384-well plate was centrifuged at 1000 rpm for 30 seconds and incubated at room temperature for 10 min. • (6) A mixture of ATP and Kinase substrate 21 with a final concentration of 25/15× was prepared by the 1× kinase buffer. • (7) Add 15 μL of the mixture of 25/15×ATP and kinase substrate solution 21 to start reaction. • (8) The 384-well plate was centrifuged at 1000 rpm for 30 seconds and incubated at room temperature. • (9) 30 μL of the stop and detection buffer was added to stop the kinase reaction and centrifuged at 1000 rpm for 30 seconds. • (10) Collect data on Caliper EZ ReaderII. Data Analysis:
(§6) Conversion %_sample is conversion rate data of samples. Conversion %_min is mean value of negative control (conversion rate data without enzyme activation). Conversion %_max is mean positive control (conversion rate data without compound).
(§7) The log of concentration is on the X axis, and the percentage inhibition is on the Y axis. Fit the Quantitative effect curves with log (inhibitor) vs. response—Variable slope in GraphPad Prism5 obtain IC50 values. Equation used is Y=Bottom+(Top−Bottom)/(1+10^((Log IC50−X)*HillSlope)).

Aurora A = Aurora A (Homo sapiens (Human), UniProt O14965); experiment: Aurora A kinase assay (mobility shift assay); assay type: biochemical
Method: as §1, §2, §3, §4, §5, §6, §7

Chain of Aurora B (Q96GD4 whole entry): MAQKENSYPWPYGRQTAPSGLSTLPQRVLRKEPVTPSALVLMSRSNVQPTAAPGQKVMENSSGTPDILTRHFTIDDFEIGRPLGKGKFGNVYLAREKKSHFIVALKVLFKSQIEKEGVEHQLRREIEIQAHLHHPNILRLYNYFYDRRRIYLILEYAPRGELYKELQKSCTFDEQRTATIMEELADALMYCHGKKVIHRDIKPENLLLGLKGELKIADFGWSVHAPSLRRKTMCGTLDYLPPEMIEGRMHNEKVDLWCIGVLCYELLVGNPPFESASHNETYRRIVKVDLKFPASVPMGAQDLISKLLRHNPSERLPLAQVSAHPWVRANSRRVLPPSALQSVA
Chain of Aurora A (O14965 whole entry): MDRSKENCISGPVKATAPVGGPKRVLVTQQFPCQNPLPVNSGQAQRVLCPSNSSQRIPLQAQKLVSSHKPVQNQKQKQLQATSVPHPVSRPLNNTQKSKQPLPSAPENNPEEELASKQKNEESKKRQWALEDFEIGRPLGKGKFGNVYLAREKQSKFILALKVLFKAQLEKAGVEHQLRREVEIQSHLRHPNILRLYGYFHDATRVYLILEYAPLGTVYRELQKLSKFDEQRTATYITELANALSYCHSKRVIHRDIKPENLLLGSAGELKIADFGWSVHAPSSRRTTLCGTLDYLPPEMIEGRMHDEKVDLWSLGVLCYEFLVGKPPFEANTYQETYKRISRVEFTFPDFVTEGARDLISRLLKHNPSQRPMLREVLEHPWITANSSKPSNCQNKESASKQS

SMILES	IC50 Ratio Aur B/Aur A (Aurora B)	IC50 (Aurora A) [nM]
Cc1cc(Nc2ccc(F)c(C[C@@]3(C(=O)O)CCN(Cc4c(F)cccc4F)[C@H](C)C3)n2)n[nH]1 [Example 12, (2R,4R)-1-(2,6-difluorobenzyl)-4-((3-fluoro-6-((5-methyl-1H-pyrazol-3-yl)amino)pyridin-2-yl)methyl)-2-methylpiperidine-4-carboxylic acid]	2560	2.4
Cc1cc(Nc2ncc(F)c(C[C@@]3(C(=O)O)CCN(Cc4cccc(Cl)c4F)[C@H](C)C3)n2)n[nH]1 [Example 26, (2R,4R)-1-(3-chloro-2-fluorobenzyl)-4-((5-fluoro-2-((5-methyl-1H-pyrazol-3-yl)amino)pyrimidin-4-yl)methyl)-2-methylpiperidine-4-carboxylic acid]	1499	2.9
CCC1CC(Cc2nc(Nc3cc(C)[nH]n3)ccc2F)(C(=O)O)CCN1Cc1cccc(Cl)c1F (stereo not shown) [Example 2, 1-(3-chloro-2-fluorobenzyl)-2-ethyl-4-((3-fluoro-6-((5-methyl-1H-pyrazol-3-yl)amino)pyridin-2-yl)methyl)piperidine-4-carboxylic acid]	1236	2.9
Cc1cc(Nc2ccc(F)c(CC3(C(=O)O)CCN(Cc4cccc(Cl)c4F)CC3)n2)n[nH]1 [Example 1, 1-(3-chloro-2-fluorobenzyl)-4-((3-fluoro-6-((5-methyl-1H-pyrazol-3-yl)amino)pyridin-2-yl)methyl)piperidine-4-carboxylic acid]	2288	1.3
Cc1cc(Nc2ccc(F)c(C[C@@]3(C(=O)O)CCN(Cc4cccc(F)c4F)[C@H](C)C3)n2)n[nH]1 [Example 15, (2R,4R)-1-(2,3-difluorobenzyl)-4-((3-fluoro-6-((5-methyl-1H-pyrazol-3-yl)amino)pyridin-2-yl)methyl)-2-methylpiperidine-4-carboxylic acid]	1755	0.55
Cc1cc(Nc2ccc(F)c(C[C@@]3(C(=O)O)CCN(Cc4ccc(F)c(Cl)c4F)[C@H](C)C3)n2)n[nH]1 [Example 27, (2R,4R)-1-(3-chloro-2,4-difluorobenzyl)-4-((3-fluoro-6-((5-methyl-1H-pyrazol-3-yl)amino)pyridin-2-yl)methyl)-2-methylpiperidine-4-carboxylic acid]	622	0.81
Cc1cc(Nc2ccc(C)c(C[C@@]3(C(=O)O)CCN(Cc4cccc(Cl)c4F)[C@H](C)C3)n2)n[nH]1 [Example 10, (2R,4R)-1-(3-chloro-2-fluorobenzyl)-2-methyl-4-((3-methyl-6-((5-methyl-1H-pyrazol-3-yl)amino)pyridin-2-yl)methyl) piperidine-4-carboxylic acid]	979	1
Cc1cc(Nc2ccc(F)c(C[C@@]3(C(=O)O)CCN(Cc4cccc(C(F)(F)F)c4)[C@H](C)C3)n2)n[nH]1 [Example 21, (2R,4R)-4-((3-fluoro-6-((5-methyl-1H-pyrazol-3-yl)amino)pyridin-2-yl)methyl)-2-methyl-1-(3-(trifluoromethyl)benzyl) piperidine-4-carboxylic acid]	1789	3.1
Cc1cc(Nc2ccc(F)c(C[C@@]3(C(=O)O)CCN(Cc4c(Cl)cccc4Cl)[C@H](C)C3)n2)n[nH]1 [Example 17, (2R,4R)-1-(2,6-dichlorobenzyl)-4-((3-fluoro-6-((5-methyl-1H-pyrazol-3-yl)amino)pyridin-2-yl)methyl)-2-methylpiperidine-4-carboxylic acid]	2974	3.2

Next, values leading:

IC50 Ratio Aur B/Aur A (Aurora B)	IC50 (Aurora A) [nM]	SMILES
2036	0.61	Cc1cc(Nc2nc(CC3(C(=O)O)CCN(Cc4cccc(Cl)c4F)CC3)cc(C)c2F)n[nH]1 [Example 79, 1-(3-chloro-2-fluorobenzyl)-4-((5-fluoro-4-methyl-6-((5-methyl-1H-pyrazol-3-yl)amino)-pyridin-2-yl)methyl)piper-idine-4-carboxylic acid]
2833	0.22	Cc1cc(Nc2cc(C)c(F)c(CC3(C(=O)O)CCN(Cc4cccc(Cl)c4F)CC3)n2)n[nH]1 [Example 51, 1-(3-chloro-2-fluorobenzyl)-4-((3-fluoro-4-methyl-6-((5-methyl-1H-pyrazol-3-yl)amino)-pyridin-2-yl)methyl)piper-idine-4-carboxylic acid]
451	1.1	Cc1cc(Nc2nc(C[C@@]3(C(=O)O)CCN(Cc4cccc(Cl)c4F)[C@H](C)C3)c(F)cc2F)n[nH]1 [Example 91, (2R,4R)-1-(3-chloro-2-fluorobenzyl)-4-((3,5-difluoro-6-((5-methyl-1H-pyrazol-3-yl)amino)pyridin-2-yl)methyl)-2-methylpiperidine-4-carboxylic acid]
3358	0.67	Cc1cc(Nc2nc(C[C@@]3(C(=O)O)CCN(Cc4cccc(Cl)c4F)[C@H](C)C3)c(F)c(Cl)c2F)n[nH]1 [Example 74]
1479	0.54	Cc1cc(Nc2nc(C[C@@]3(C(=O)O)CCN(Cc4cccc(Cl)c4F)[C@H](C)C3)cc(C#N)c2F)n[nH]1 [Example 90, (2R,4R)-1-(3-chloro-2-fluorobenzyl)-4-((4-cyano-5-fluoro-6-((5-methyl-1H-pyrazol-3-yl)amino)pyridin-2-yl)methyl)-2-methylpiperidine-4-carboxylic acid]
1285	1.3	Cc1cc(Nc2cc(C)c(F)c(CC3(C(=O)O)CCN(Cc4cccc(F)c4F)CC3)n2)n[nH]1 [Example 52]
1353	0.77	Cc1cc(Nc2cc(S(C)(=O)=O)c(F)c(C[C@@]3(C(=O)O)CCN(Cc4cccc(Cl)c4F)[C@H](C)C3)n2)n[nH]1 [Example 81, (2R,4R)-1-(3-chloro-2-fluorobenzyl)-4-((3-fluoro-6-((5-methyl-1H-pyrazol-3-yl)amino)-4-(methylsulfonyl)pyridin-2-yl)methyl)-2-methylpiperidine-4-carboxylic acid]
3835	0.88	Cc1cc(Nc2cc(C)c(F)c(CC3(C(=O)O)CCN(Cc4c(F)ccc(Cl)c4F)CC3)n2)n[nH]1 [Example 55, 1-(3-chloro-2,6-difluoro-benzyl)-4-((3-fluoro-4-methyl-6-((5-methyl-1H-pyrazol-3-yl)-amino)pyridin-2-yl)methyl) piperidine-4-carboxylic acid]
523	0.88	Cc1cc(Nc2cncc(C[C@@]3(C(=O)O)CCN(Cc4cccc(Cl)c4F)[C@H](C)C3)n2)n[nH]1 (stereo in doubt) [Example 45, (2R,4R)-1-(3-chloro-2-fluorobenzyl)-2-methyl-4-((6-((5-methyl-1H-pyrazol-3-yl)amino)pyrazin-2-yl)methyl)piperidine-4-carboxylic acid]
4393	0.74	Cc1cc(Nc2nc(CC3(C(=O)O)CCN(Cc4cccc(Cl)c4F)CC3)c(F)cc2F)n[nH]1 [Example 92]
4026	1.4	Cc1cc(Nc2nc(C[C@@]3(C(=O)O)CCN(Cc4cccc(Cl)c4F)[C@H](C)C3)c(F)c(Cl)c2Cl)n[nH]1 [Example 84, (2R,4R)-1-(3-chloro-2-fluorobenzyl)-4-((4,5-dichloro-3-fluoro-6-((5-methyl-1H-pyrazol-3-yl)amino)pyridin-2-yl)methyl)-2-methylpiperidine-4-carboxylic acid]
